Source: ChEMBL document CHEMBL1811893, “Seco-eremophiladiolides and eremophilane glucosides from Pittocaulon velatum” (J Nat Prod, 2011)
Calls of active or inactive are those of the source. The calls are words filed in the database; no cut-off is given here.

tested on: Rattus norvegicus; assay: Antiinflammatory activity in Lewis rat assessed as inhibition of TPA-induced ear edema; type: functional, organism-based

SMILES | Activity
C/C(=C\O[C@@H]1O[C@H](CO)[C@@H](O)[C@H](O)[C@H]1O)[C@@H]1C[C@@]2(C)C(=CC1=O)CCC[C@@H]2C | inactive
C/C(=C\O[C@@H]1O[C@H](CO)[C@@H](O)[C@H](O)[C@H]1O)[C@@H]1C[C@@]2(C)C(=CC1=O)CC[C@@H](O)[C@@H]2C | inactive
Cc1coc2c1[C@@H](OCC(C)C)[C@]1(C)[C@@H](C)CC[C@H]3O[C@]31C2=O | inactive
C/C(=C\O[C@@H]1O[C@H](CO)[C@@H](O)[C@H](O)[C@H]1O)[C@@H]1C[C@@]2(C)C(=CC1=O)[C@H](O)CC[C@@H]2C | inactive
C[C@H]1C[C@@H](O)C[C@H]2C(=O)c3occ(CO)c3[C@@H](O)[C@]12C | inactive
CC1=C([C@H]2OC(=O)[C@@H]3CCC[C@H](C)[C@@]23C)C(=O)OC1 | inactive
Cc1coc2c1[C@@H](OCC(C)C)[C@]1(C)[C@@H](C)CCC[C@H]1C2=O | inactive
CC1=C([C@@H]2OC(=O)[C@@H]3CCC[C@H](C)[C@]32C)C(=O)OC1 | inactive
C/C(=C\O[C@@H]1O[C@H](CO)[C@@H](O)[C@H](O)[C@H]1O)[C@@H]1C[C@@]2(C)C(=CC1=O)CC[C@H](O)[C@@H]2C | inactive
